This assay deals with P. falciparum lactate dehydrogenase (PfLDH) (Plasmodium falciparum, UniProt Q76NM3). In words: microscale thermophoresis. It counts as binding.
P. falciparum lactate dehydrogenase (PfLDH), sequence (Q76NM3 1-316): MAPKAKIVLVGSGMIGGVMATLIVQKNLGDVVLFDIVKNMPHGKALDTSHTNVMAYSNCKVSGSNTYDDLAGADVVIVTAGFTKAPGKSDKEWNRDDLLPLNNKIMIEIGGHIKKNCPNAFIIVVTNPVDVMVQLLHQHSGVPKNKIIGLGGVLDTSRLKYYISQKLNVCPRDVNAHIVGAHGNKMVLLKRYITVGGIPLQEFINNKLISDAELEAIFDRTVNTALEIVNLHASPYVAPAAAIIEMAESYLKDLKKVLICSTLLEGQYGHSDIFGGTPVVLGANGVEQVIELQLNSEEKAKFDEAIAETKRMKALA

A word on the Kd: it is the free concentration of one partner at which half of the binding sites on the other are occupied at equilibrium, for simple one-to-one binding. Molecule `C=C(C)[C@@H]1CC[C@]2(C(=O)O)CC[C@]3(C)[C@H](CC[C@@H]4[C@@]5(C)CC[C@H](O)C(C)(C)[C@@H]5CC[C@]43C)[C@@H]12` [BA, betulinic acid] gave a Kd of 0.104 µM.

Values taken from PMC11742793 (BMC Chemistry, 2025).
